Measurements taken from the NIST ThermoML archive (doi:10.1016/j.jct.2012.07.007).

Assays:
[1] = xn = mol fraction of the nth substance listed; settings: 101 kPa, Liquid; for speed of sound: Linear variable-path acoustic interferometer; for mass density: Vibrating tube method
[2] = excess molar enthalpy (molar enthalpy of mixing); xn = mol fraction of the nth substance listed; settings: 298.15 K, 101 kPa, Liquid, 2-drop calorimetry

Cc1cccnc1 [3-methylpyridine] + CCn1cc[n+](C)c1.F[B-](F)(F)F
[1]
Settings | mass density, 293.15 K [kg/m3] | mass density, 298.15 K [kg/m3] | mass density, 303.15 K [kg/m3] | mass density, 308.15 K [kg/m3] | speed of sound, 293.15 K [m/s] | speed of sound, 298.15 K [m/s] | speed of sound, 303.15 K [m/s] | speed of sound, 308.15 K [m/s]
x2 = 0.1217 | 1024.56 | 1020.46 | 1016.63 | 1011.73 | 1479.9 | 1465 | 1443.4 | 1427
x2 = 0.1729 | 1050.57 | 1046.54 | 1042.83 | 1038.13 | 1494.7 | 1480.8 | 1459.7 | 1443.9
x2 = 0.2415 | 1082.96 | 1079.02 | 1075.3 | 1070.72 | 1514 | 1499.7 | 1481.3 | 1465.7
x2 = 0.2711 | 1096.07 | 1092.1 | 1088.37 | 1084.01 | 1521.8 | 1507.9 | 1490.3 | 1474.6
x2 = 0.3214 | 1117.16 | 1113.25 | 1109.49 | 1105.3 | 1535.6 | 1520.5 | 1504.5 | 1488.8
x2 = 0.3732 | 1137.38 | 1133.44 | 1129.62 | 1125.73 | 1548.8 | 1532.8 | 1519.4 | 1503.3
x2 = 0.4219 | 1154.95 | 1151.03 | 1147.27 | 1143.6 | 1560.1 | 1543.2 | 1532.2 | 1517
x2 = 0.4718 | 1171.59 | 1167.7 | 1163.94 | 1160.52 | 1571.8 | 1554.4 | 1544.1 | 1530
x2 = 0.5209 | 1186.68 | 1182.83 | 1179.2 | 1175.87 | 1581.6 | 1564 | 1556 | 1541.8
x2 = 0.5723 | 1201.17 | 1197.38 | 1193.82 | 1190.64 | 1591.9 | 1574.7 | 1566.4 | 1554.1
x2 = 0.6221 | 1214.02 | 1210.25 | 1206.88 | 1203.74 | 1600.3 | 1583.7 | 1576.1 | 1565.4
x2 = 0.6731 | 1226.02 | 1222.36 | 1219.18 | 1215.94 | 1607.5 | 1593 | 1585.5 | 1576.2
x2 = 0.7212 | 1236.43 | 1232.83 | 1229.78 | 1226.48 | 1614.1 | 1601.4 | 1592.8 | 1585.3
x2 = 0.7708 | 1246.34 | 1242.76 | 1239.81 | 1236.4 | 1619.1 | 1608.8 | 1598.7 | 1593.7
x2 = 0.8224 | 1255.77 | 1252.24 | 1249.34 | 1245.81 | 1623.7 | 1614.9 | 1604.2 | 1599.5
x2 = 0.8713 | 1264.1 | 1260.53 | 1257.58 | 1253.89 | 1627.2 | 1619.3 | 1607.5 | 1603
x2 = 0.9119 | 1270.62 | 1266.99 | 1263.93 | 1260.07 | 1629 | 1621.6 | 1609 | 1603.9
x2 = 0.9317 | 1273.7 | 1270 | 1266.86 | 1262.91 | 1629.8 | 1621.8 | 1609.2 | 1603.2

[2]
Settings | excess molar enthalpy [kcal/mol]
x2 = 0.1256 | -0.0325
x2 = 0.1676 | -0.0409
x2 = 0.2089 | -0.0491
x2 = 0.2578 | -0.0586
x2 = 0.2976 | -0.0651
x2 = 0.3387 | -0.0702
x2 = 0.3898 | -0.0766
x2 = 0.4367 | -0.0814
x2 = 0.4876 | -0.0864
x2 = 0.5223 | -0.0882
x2 = 0.599 | -0.0898
x2 = 0.6345 | -0.089
x2 = 0.689 | -0.0861
x2 = 0.7356 | -0.081
x2 = 0.7909 | -0.0713
x2 = 0.8479 | -0.0582
x2 = 0.889 | -0.047
x2 = 0.9109 | -0.0393

Cc1ccncc1 [4-methylpyridine] + CCn1cc[n+](C)c1.F[B-](F)(F)F
[1]
Settings | mass density, 293.15 K [kg/m3] | mass density, 298.15 K [kg/m3] | mass density, 303.15 K [kg/m3] | mass density, 308.15 K [kg/m3] | speed of sound, 293.15 K [m/s] | speed of sound, 298.15 K [m/s] | speed of sound, 303.15 K [m/s] | speed of sound, 308.15 K [m/s]
x2 = 0.1211 | 1022.19 | 1017.25 | 1012.54 | 1008.4 | 1485 | 1464.4 | 1448.9 | 1428.2
x2 = 0.1734 | 1048.92 | 1043.93 | 1039.26 | 1035.43 | 1499.5 | 1479.3 | 1464.5 | 1443.7
x2 = 0.2215 | 1072.35 | 1067.26 | 1062.71 | 1059.13 | 1512.2 | 1492.7 | 1478.1 | 1457.6
x2 = 0.2738 | 1096.49 | 1091.32 | 1086.94 | 1083.63 | 1525 | 1506.5 | 1492.3 | 1472.9
x2 = 0.3226 | 1117.74 | 1112.6 | 1108.38 | 1105.18 | 1536.7 | 1519.3 | 1505.1 | 1486.3
x2 = 0.3709 | 1137.61 | 1132.52 | 1128.45 | 1125.39 | 1548 | 1531.8 | 1517.3 | 1499.9
x2 = 0.4215 | 1157.13 | 1152.2 | 1148.31 | 1145.11 | 1558.7 | 1543.8 | 1529.7 | 1514.7
x2 = 0.4721 | 1175.31 | 1170.56 | 1166.92 | 1163.65 | 1568.6 | 1554.4 | 1541.8 | 1528.9
x2 = 0.5207 | 1191.56 | 1186.91 | 1183.59 | 1180.05 | 1576.9 | 1564.8 | 1553 | 1542.6
x2 = 0.5728 | 1207.52 | 1203.15 | 1200.15 | 1196.14 | 1585.7 | 1573.8 | 1564.2 | 1557.1
x2 = 0.6218 | 1221.15 | 1217.12 | 1214.3 | 1209.95 | 1593.2 | 1582.3 | 1574.8 | 1570.3
x2 = 0.6731 | 1234.15 | 1230.36 | 1227.81 | 1222.97 | 1600.4 | 1589.4 | 1585.1 | 1582.7
x2 = 0.7224 | 1245.2 | 1241.78 | 1239.32 | 1234.16 | 1607 | 1595.7 | 1594.6 | 1593.7
x2 = 0.7743 | 1255.49 | 1252.28 | 1249.84 | 1244.37 | 1613 | 1601.8 | 1602.4 | 1603.4
x2 = 0.8203 | 1263.45 | 1260.27 | 1257.85 | 1252.23 | 1617.3 | 1606.3 | 1608.5 | 1609.8
x2 = 0.8717 | 1270.96 | 1267.85 | 1265.24 | 1259.65 | 1622.3 | 1610.6 | 1612.2 | 1612.8
x2 = 0.9111 | 1275.81 | 1272.56 | 1269.8 | 1264.37 | 1625.3 | 1613.4 | 1613.3 | 1611.5
x2 = 0.9312 | 1278 | 1274.64 | 1271.69 | 1266.47 | 1626.7 | 1614.9 | 1613.3 | 1609.7

[2]
Settings | excess molar enthalpy [kcal/mol]
x2 = 0.111 | -0.0311
x2 = 0.1679 | -0.0454
x2 = 0.2098 | -0.0558
x2 = 0.2387 | -0.0624
x2 = 0.2909 | -0.0731
x2 = 0.3267 | -0.0788
x2 = 0.379 | -0.0873
x2 = 0.4167 | -0.0925
x2 = 0.4834 | -0.0997
x2 = 0.5267 | -0.104
x2 = 0.5908 | -0.106
x2 = 0.615 | -0.106
x2 = 0.6786 | -0.101
x2 = 0.7234 | -0.0974
x2 = 0.7945 | -0.0841
x2 = 0.8346 | -0.0723
x2 = 0.889 | -0.0539
x2 = 0.9267 | -0.0389
